Results on four molecules are retold here after the NIST ThermoML archive (doi:10.1016/j.jct.2012.12.007).

Structures are written as SMILES. ± gives the expanded uncertainty stated by the source.

For the series the following is noted: 101.33 kPa, Liquid; for speed of sound: Sing-around technique in a fixed-path interferometer; for mass density: Vibrating tube method.

Take `CCCCO` [butan-1-ol]: the speed of sound (as a rule, the propagation velocity of pressure waves in the medium) (293.15 K) amounted to 1256.2 ± 0.7 m/s; the speed of sound (298.15 K) is listed as 1239.6 ± 0.7 m/s; the speed of sound (303.15 K) amounted to 1223.8 ± 0.7 m/s. Besides, the mass density – broadly, mass per unit of volume – (293.15 K) was found to be 809.89 ± 0.12 kg/m3; the mass density (298.15 K) amounted to 806.47 ± 0.12 kg/m3; the mass density (303.15 K) is reported as 802.22 ± 0.12 kg/m3.

With `CCCCCCCCCCO` [decan-1-ol], the speed of sound (293.15 K) is 1397.1 ± 1.2 m/s, the speed of sound (298.15 K) is reported as 1380.3 ± 1.2 m/s and the speed of sound (303.15 K) amounted to 1364.1 ± 1.2 m/s. Also, the mass density was determined as 829.95 ± 0.24 kg/m3 (293.15 K), 826.95 ± 0.24 kg/m3 (298.15 K) and 823.15 ± 0.24 kg/m3 (303.15 K).

As to `CCOCCOCCOCC` [diethylene glycol diethyl ether], the speed of sound (293.15 K) is 1259.4 ± 1.2 m/s, the speed of sound (298.15 K) was 1239.9 ± 1.2 m/s and the speed of sound (303.15 K) is reported as 1221.8 ± 1.2 m/s. The mass density came to 906.73 ± 0.23 kg/m3 (293.15 K), 902.88 ± 0.23 kg/m3 (298.15 K) and 897.22 ± 0.23 kg/m3 (303.15 K).

For `CO` [methanol], the speed of sound (293.15 K) is recorded as 1118 ± 1 m/s, the speed of sound (298.15 K) is 1101.4 ± 0.6 m/s and the speed of sound (303.15 K) is on record as 1086.6 ± 0.6 m/s. Also, the mass density runs as follows: (293.15 K) 791.55 ± 0.12 kg/m3; (298.15 K) 787.2 ± 0.12 kg/m3; (303.15 K) 782.44 ± 0.12 kg/m3.
